Where two headings read alike, the source gives them in different places.
Assay: Stability studies, storage at 40° C.
Assay type: physicochemical

degradation after 12 months storage	degradation after 12 months storage (hydrate)	Structure (SMILES)
more than 30%	–	C=C1/C(=C\C=C2/CCC[C@]3(C)[C@@H]([C@H](C)/C=C/[C@@H](O)C4CC4)CC[C@@H]23)C[C@@H](O)C[C@@H]1O [anhydrous form of calcipotriol, (1α,3β,5Z,7E,22E,24S)-24-Cyclopropyl-9,10-secochola-5,7,10(19), 22-tetraene-1,3,24-triol]
–	no degradation	C=C1/C(=C\C=C2/CCC[C@]3(C)[C@@H]([C@H](C)/C=C/[C@@H](O)C4CC4)CC[C@@H]23)C[C@@H](O)C[C@@H]1O [calcipotriol hydrate, calcipotriol, hydrate]

Reference: patent publication USRE39706E1, “Crystalline form of a vitamin D analogue” (Leo Pharma A/S, priority 1993, dated 2007)
